Blank lines part the entries; values can stand above or below the molecule they belong to.
Test system: 168753-222-R-J1-PDC complex spheroid viability
Assay: Anticancer human tumor 168753-222-R-J1-PDC patient-derived bladder carcinoma cell line growth inhibition [CLK]
Details: for IC50: curve of first compound; for viability, T/C: stronger effect = lower value
From the text: A high-throughput screen of multi-cell type tumor spheroids was designed to identify active combinations of […] and targeted small molecules. Complex spheroids include a stromal component modeled by human endothelial cells (HUVEC) and fibroblasts modeled by human mesenchymal stem cells (MSCs). The concentration ranges selected for each drug and investigational agent were based upon clinically achievable concentrations if the clinical Cmax of the agent was known.
Compounds. The drugs and investigational agents: cirtuvivint (SM08502; NSC835563), CC-671 (NSC850746), vemurafenib (NSC761431), tapotoclax (NSC804041), sotorasib (NSC818433), adagrasib (NSC831453), MRTX-1133 (NSC836407), BAY2416964 (NSC825713), copanlisib (NSC816437), inavolisib (NSC800729), abemaciclib (NSC768073), osimertinib (NSC779217), entinostat (NSC756642), eltanexor (KPT-8602, NSC794443), venetoclax (NSC766270), ceralasertib (NSC777638), bortezomib (NSC756655), olaparib (NSC753686), talazoparib (NSC767125), alisertib (NSC759677), peposertib (NSC802822), gemcitabine (NSC613327), 5-fluorouracil (NSC19893), SN-38 (NSC673596), oxaliplatin (NSC266046), paclitaxel (NSC125973), and doxorubicin (NSC123127), were obtained from the National Cancer Institute (NCI) Developmental Therapeutics Program Chemical Repository. The FDA-approved anticancer drug set is available from the Developmental Therapeutics Program at https://dtp.cancer.gov/organization/dscb/obtaining/available plates.htm. […] The stock solutions were prepared in dimethyl sulfoxide (DMSO, Sigma-Aldrich, St. Louis, MO, cat. D2650), except for the platinum complexes which were prepared in saline (Quality Biological, Gaithersburg, MD, cat. 114-055-101), at 800-fold the tested concentration and stored at -70 degrees C prior to their use. All drugs and investigational agents were tested over a range starting from a high concentration at or near the clinical Cmax and decreasing in half-log increments. If the clinical Cmax for an agent had not been determined, the highest concentration tested was 10 microM.
Cell Culture. All cells were maintained in an incubator at 37 degrees C and 5% CO2 with 95% humidity. The PDC lines were cultured according to standard operating procedures established by the NCI PDMR. Briefly, all PDCs were thawed and cultured in Matrigel-coated flasks prepared with a working solution of 1X Ham's F-12 nutrient mix, without supplementation (Invitrogen, Waltham, MA, cat. 11765054), 100 U/mL penicillin-streptomycin (Invitrogen, cat. 15140122), and 2.5% Matrigel (Corning Inc., Corning, NY, cat. 354248) for the first three passages. The 947758-054-R-J2-PDC line was cultured in 6B/Colon 1A media, which includes advanced DMEM/F-12 (Thermo Fisher Scientific, cat. 12634028), 10 mM HEPES (Thermo Fisher Scientific, cat. 15630080), 1X GlutaMAX supplement (Thermo Fisher Scientific, cat. 35050061), 0.1 mg/mL primocin (InvivoGen, cat. ant-pm-2), 10% defined fetal bovine serum, heat inactivated (HyClone Laboratories Inc., cat. SH30070.03HI), 1.25 mM N-Acetyl-L-cysteine (Sigma-Aldrich, cat. A9165), 10 mM nicotinamide (Sigma-Aldrich, cat. N0636), 1X B-27 supplement (Thermo Fisher Scientific, cat. 17504044), 1X N-2 supplement (Thermo Fisher Scientific, cat. 17502048), and 10 microM Y-27632 dihydrochloride (Tocris Bioscience, cat. 1254). The 876862-298-R-J1-PDC was cultured in 6E media, which includes all 6B/Colon 1A media components plus 50% L-WRN conditioned media (ATCC, cat. CRL-3276), 50 ng/mL recombinant human EGF recombinant protein (hEGF; Thermo Fisher Scientific, cat. PHG0311), 10 ng/mL recombinant human fibroblast growth factor 10 (hGFG-10; PeproTech, cat. 100-26), 1 ng/mL recombinant human fibroblast growth factor 2 (hFGF-2; PeproTech, cat. 100-18B), and 1 µM prostaglandin E2 (PGE2; Tocris, cat. 2296). The 227483-062-R1-J1-PDC line was cultured in Panc media, containing all 6E components except hFGF-2, with the addition of 500 nM SB-431542 (Selleckchem, cat. S1067) and 10 nM gastrin (Tocris, cat. 3006). […]

[1] = second compound 0.0316 µM, first compound 0.0316 µM
[2] = second compound 0.0316 µM, first compound 0.1 µM
[3] = second compound 0.0316 µM, first compound 0.316 µM
[4] = second compound 0.0316 µM, first compound 1 µM
[5] = second compound 0.0316 µM, first compound 3.16 µM
[6] = second compound 0.0316 µM, first compound 10 µM
[7] = second compound 0.1 µM, first compound 0.0316 µM
[8] = second compound 0.1 µM, first compound 0.1 µM
[9] = second compound 0.1 µM, first compound 0.316 µM
[10] = second compound 0.1 µM, first compound 1 µM
[11] = second compound 0.1 µM, first compound 3.16 µM
[12] = second compound 0.1 µM, first compound 10 µM
[13] = second compound 0.316 µM, first compound 0.0316 µM
[14] = second compound 0.316 µM, first compound 0.1 µM
[15] = second compound 0.316 µM, first compound 0.316 µM
[16] = second compound 0.316 µM, first compound 1 µM
[17] = second compound 0.316 µM, first compound 3.16 µM
[18] = second compound 0.316 µM, first compound 10 µM
[19] = second compound 1 µM, first compound 0.0316 µM
[20] = second compound 1 µM, first compound 0.1 µM
[21] = second compound 1 µM, first compound 0.316 µM
[22] = second compound 1 µM, first compound 1 µM
[23] = second compound 1 µM, first compound 3.16 µM
[24] = second compound 1 µM, first compound 10 µM
[25] = second compound 3.16 µM, first compound 0.0316 µM
[26] = second compound 3.16 µM, first compound 0.1 µM
[27] = second compound 3.16 µM, first compound 0.316 µM
[28] = second compound 3.16 µM, first compound 1 µM
[29] = second compound 3.16 µM, first compound 3.16 µM
[30] = second compound 3.16 µM, first compound 10 µM
[31] = second compound 10 µM, first compound 0.0316 µM
[32] = second compound 10 µM, first compound 0.1 µM
[33] = second compound 10 µM, first compound 0.316 µM
[34] = second compound 10 µM, first compound 1 µM
[35] = second compound 10 µM, first compound 3.16 µM
[36] = second compound 10 µM, first compound 10 µM
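Note: viability measured after seven days of drug exposure.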
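Throughout, for viability, T/C: luminescence signal used as surrogate for viable cell amount; 100% = DMSO vehicle control wells.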

SMILES: COc1ccc([C@@H](O)c2cc(-c3ncnc4cc(N5CCOCC5)ccc34)c(F)cc2Cl)nn1 + CN1CCN(c2cc(C(=O)Nc3cc4cc(-c5cnn(C)c5)ccc4cn3)ccn2)CC1
- IC50 (second compound 0.0316 µM): 361 nM
- IC50 (second compound 0.1 µM): 47.5 nM
- IC50 (second compound 0.316 µM): < 31.6 nM
- IC50 (second compound 1 µM): < 31.6 nM
- IC50 (second compound 3.16 µM): < 31.6 nM
- IC50 (second compound 10 µM): < 31.6 nM
- viability, T/C [1]: 95.5%
- viability, T/C [2]: 82.1%
- viability, T/C [3]: 55.6%
- viability, T/C [4]: 19.2%
- viability, T/C [5]: 11.7%
- viability, T/C [6]: 7.52%
- viability, T/C [7]: 63%
- viability, T/C [8]: 26.1%
- viability, T/C [9]: 13.6%
- viability, T/C [10]: 13.1%
- viability, T/C [11]: 10.1%
- viability, T/C [12]: 7.24%
- viability, T/C [13]: 9.76%
- viability, T/C [14]: 8.36%
- viability, T/C [15]: 8.98%
- viability, T/C [16]: 7.9%
- viability, T/C [17]: 7.78%
- viability, T/C [18]: 3.67%
- viability, T/C [19]: 0.16%
- viability, T/C [20]: 0.12%
- viability, T/C [21]: 0.13%
- viability, T/C [22]: 0.07%
- viability, T/C [23]: 0.79%
- viability, T/C [24]: 0.13%
- viability, T/C [25]: 0.05%
- viability, T/C [26]: 0.08%
- viability, T/C [27]: 0.15%
- viability, T/C [28]: 0.05%
- viability, T/C [29]: 0.09%
- viability, T/C [30]: 0.54%
- viability, T/C [31]: 0.04%
- viability, T/C [32]: 0.81%
- viability, T/C [33]: 1.23%
- viability, T/C [34]: 0.1%
- viability, T/C [35]: 0.4%
- viability, T/C [36]: 0.47%

SMILES: CCCS(=O)(=O)Nc1ccc(F)c(C(=O)c2c[nH]c3ncc(-c4ccc(Cl)cc4)cc23)c1F + CN1CCN(c2cc(C(=O)Nc3cc4cc(-c5cnn(C)c5)ccc4cn3)ccn2)CC1
- IC50 (second compound 0.0316 µM): > 10000 nM
- IC50 (second compound 0.1 µM): 7830 nM
- IC50 (second compound 0.316 µM): < 31.6 nM
- IC50 (second compound 1 µM): < 31.6 nM
- IC50 (second compound 3.16 µM): < 31.6 nM
- IC50 (second compound 10 µM): < 31.6 nM
- viability, T/C [1]: 96.7%
- viability, T/C [2]: 116%
- viability, T/C [3]: 112%
- viability, T/C [4]: 122%
- viability, T/C [5]: 112%
- viability, T/C [6]: 59.5%
- viability, T/C [7]: 80.1%
- viability, T/C [8]: 94.7%
- viability, T/C [9]: 58.3%
- viability, T/C [10]: 88.5%
- viability, T/C [11]: 86.5%
- viability, T/C [12]: 41.5%
- viability, T/C [13]: 15.8%
- viability, T/C [14]: 17.8%
- viability, T/C [15]: 16%
- viability, T/C [16]: 14.7%
- viability, T/C [17]: 20.1%
- viability, T/C [18]: 22.1%
- viability, T/C [19]: 0.38%
- viability, T/C [20]: 0.46%
- viability, T/C [21]: 0.31%
- viability, T/C [22]: 0.33%
- viability, T/C [23]: 0.96%
- viability, T/C [24]: 2.48%
- viability, T/C [25]: 0.11%
- viability, T/C [26]: 1.81%
- viability, T/C [27]: 0.12%
- viability, T/C [28]: 0.11%
- viability, T/C [29]: 2.3%
- viability, T/C [30]: 1.36%
- viability, T/C [31]: 0.16%
- viability, T/C [32]: 2.21%
- viability, T/C [33]: 0.61%
- viability, T/C [34]: 0.3%
- viability, T/C [35]: 3.61%
- viability, T/C [36]: 3.12%

- IC50 (second compound 0.0316 µM): > 100 nM
- IC50 (second compound 0.1 µM): > 100 nM
- IC50 (second compound 0.316 µM): > 100 nM
- IC50 (second compound 1 µM): < 0.316 nM
- IC50 (second compound 3.16 µM): < 0.316 nM
- IC50 (second compound 10 µM): < 0.316 nM
SMILES: Cn1ncnc1[C@H]1c2n[nH]c(=O)c3cc(F)cc(c23)N[C@@H]1c1ccc(F)cc1 + CNC(=O)c1ccc(Nc2nc(OC3CCCC3)c3c(-c4ccc5nc(C)oc5c4)c[nH]c3n2)c(OC)c1
- viability, T/C (second compound 0.0316 µM, first compound 0.000316 µM): 95%
- viability, T/C (second compound 0.0316 µM, first compound 0.001 µM): 116%
- viability, T/C (second compound 0.0316 µM, first compound 0.00316 µM): 110%
- viability, T/C (second compound 0.0316 µM, first compound 0.01 µM): 113%
- viability, T/C [1]: 104%
- viability, T/C [2]: 108%
- viability, T/C (second compound 0.1 µM, first compound 0.000316 µM): 96.8%
- viability, T/C (second compound 0.1 µM, first compound 0.001 µM): 93.6%
- viability, T/C (second compound 0.1 µM, first compound 0.00316 µM): 91.7%
- viability, T/C (second compound 0.1 µM, first compound 0.01 µM): 103%
- viability, T/C [7]: 103%
- viability, T/C [8]: 92.6%
- viability, T/C (second compound 0.316 µM, first compound 0.000316 µM): 66.3%
- viability, T/C (second compound 0.316 µM, first compound 0.001 µM): 72%
- viability, T/C (second compound 0.316 µM, first compound 0.00316 µM): 77.2%
- viability, T/C (second compound 0.316 µM, first compound 0.01 µM): 85.2%
- viability, T/C [13]: 82.1%
- viability, T/C [14]: 77.2%
- viability, T/C (second compound 1 µM, first compound 0.000316 µM): 33.9%
- viability, T/C (second compound 1 µM, first compound 0.001 µM): 32%
- viability, T/C (second compound 1 µM, first compound 0.00316 µM): 30.6%
- viability, T/C (second compound 1 µM, first compound 0.01 µM): 28%
- viability, T/C [19]: 31.9%
- viability, T/C [20]: 42%
- viability, T/C (second compound 3.16 µM, first compound 0.000316 µM): 22.6%
- viability, T/C (second compound 3.16 µM, first compound 0.001 µM): 18.6%
- viability, T/C (second compound 3.16 µM, first compound 0.00316 µM): 19.6%
- viability, T/C (second compound 3.16 µM, first compound 0.01 µM): 18.7%
- viability, T/C [25]: 19.8%
- viability, T/C [26]: 21.5%
- viability, T/C (second compound 10 µM, first compound 0.000316 µM): 15.8%
- viability, T/C (second compound 10 µM, first compound 0.001 µM): 17.3%
- viability, T/C (second compound 10 µM, first compound 0.00316 µM): 19.3%
- viability, T/C (second compound 10 µM, first compound 0.01 µM): 16.8%
- viability, T/C [31]: 16.3%
- viability, T/C [32]: 20.5%

— PubChem BioAssay AID2060626 (Molecular Pharmacology Branch, DTP, NCI, 2025)
